# In publication PMC11280325, “Design, Synthesis, and Characterization of Novel Thiazolidine-2,4-Dione-Acridine Hybrids as Antitumor Agents” (Molecules, 2024):
# Key:
# MCF-10A = test: MTT assay, MCF-10A non-cancerous cells; assay type: cell-based, human; conditions: non-cancerous epithelial breast cells, 48 h incubation
# Procedure: The non-cancerous cell line MCF-10A (human epithelial breast cells) was cultured in a DMEM F12 medium supplemented with 10% FBS (Invitrogen, Carlsbad, CA, USA), 1× HyClone™ Antibiotic/Antimycotic Solution (GE Healthcare, Piscataway, NJ, USA), insulin, hEGF, and hydrocortisone. The BJ-5ta cells (human dermal fibroblasts) were cultured in a DMEM-M199 4:1 medium mixture, supplemented with 10% FBS and hygromycin B (0.01 mg/mL). The cells were maintained under standard conditions with an atmosphere containing 5% CO2 at 37 °C. Cell viability, estimated by trypan blue exclusion, was consistently greater than 95% before each experiment.
# (§1) To evaluate the IC50 (half-maximal inhibitory concentration) and confirm the antiproliferative activity of the tested substances, we employed the colorimetric MTT assay (3-(4,5-dimethylthiazol-2-yl)-2,5-diphenyltetrazolium bromide) (Sigma-Aldrich Chemie, Steinheim, Germany). The cell lines were seeded in 96-well plates at a density of 5 × 10^3 to 10 × 10^3 cells per well. After 24 h, the tested substances, dissolved in the cultivation medium, were added to the cells at final concentrations of 5, 10, 20, and 50 µmol/L. The cells were then incubated for 48 h under standard cultivation conditions. Following the incubation period, MTT was added to each well. The MTT was metabolized by the cells into insoluble formazan crystals, which were subsequently dissolved by adding 100 µL of 10% SDS. After another 24 h, the absorbance was measured at a wavelength of 540 nm using the automated Cytation™ 3 Cell Imaging Multi-Mode Reader (Biotek, Winooski, VT, USA). The experiments were performed in at least three independent repetitions. IC50 values were calculated using a nonlinear regression method.
# Bj-5ta = test: MTT assay, BJ-5ta non-cancerous fibroblasts; assay type: cell-based, human; conditions: Homo sapiens, Fibroblast, 48 h, non-cancerous dermal fibroblasts, 48 h incubation
# Summary of the method: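 Human MCF-10A breast epithelial and BJ-5ta dermal fibroblast cells seeded 24 h, then exposed to compounds at 5, 10, 20 and 50 µmol/L for 48 h at 37 °C. MTT with SDS solubilization, absorbance 540 nm. IC50 from nonlinear regression, ≥3 independent repeats.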
# A549 = test: MTT assay, A549; assay type: cell-based, human; conditions: Homo sapiens, A549, 48 h, lung adenocarcinoma, 48 h incubation
# Summary of the method: (§2)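 5–10 × 10^3 cells/well, 24 h attach → compound 5, 10, 20, 50 µmol/L in medium, 48 h → MTT → 10% SDS, 24 h → A540. IC50 by nonlinear regression, n ≥ 3.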
# Hep G2 = test: MTT assay, Hep G2; assay type: cell-based, human; conditions: Homo sapiens, HepG2, 48 h, hepatocellular carcinoma, 48 h incubation
# Summary of the method: as §2
# A2780 = test: MTT assay, A2780; assay type: cell-based, human; conditions: ovarian adenocarcinoma, 48 h incubation
# Procedure: The human cancer cell lines HeLa (cervical adenocarcinoma), HCT116 (colorectal adenocarcinoma), A2780 (human ovarian adenocarcinoma), A2780cis (human ovarian adenocarcinoma cisplatin-resistant), Jurkat (acute T-lymphoblastic leukemia), and Hep G2 (hepatocellular carcinoma) were cultured in an RPMI 1640 growth medium (Biosera, Kansas City, MO, USA). The cancer cell lines MDA-MB-231 (triple-negative breast adenocarcinoma), A2058 (human melanoma), U87 (human glioblastoma), PATU 8902 (pancreas adenocarcinoma), and A549 (human lung adenocarcinoma) were cultured in a DMEM medium (Biosera, Kansas City, MO, USA). The media were supplemented with 10% fetal bovine serum (FBS) (Invitrogen, Carlsbad, CA, USA) and 1× HyClone™ Antibiotic/Antimycotic Solution (GE Healthcare, Piscataway, NJ, USA).
# as §1
# HeLa = test: MTT assay, HeLa; assay type: cell-based, human; conditions: cervical adenocarcinoma, 48 h incubation
# Summary of the method: (§3)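 PATU 8902 and A2058 grown in DMEM, HCT116 and HeLa in RPMI 1640, both with 10% FBS; seeded 24 h before exposure to 5, 10, 20 and 50 µmol/L compound for 48 h. Viability by MTT, formazan dissolved in SDS, absorbance 540 nm; IC50 by nonlinear regression, ≥3 repeats.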
# HCT116 = test: MTT assay, HCT116; assay type: cell-based, human; conditions: colorectal adenocarcinoma, 48 h incubation
# Summary of the method: as §3
# PATU = test: MTT assay, PATU 8902; assay type: cell-based, human; conditions: Homo sapiens, PaTu 8902, 48 h, pancreas adenocarcinoma, 48 h incubation
# Summary of the method: as §3
# A2058 = test: MTT assay, A2058; assay type: cell-based; conditions: Homo sapiens, A2058, 48 h, human melanoma, 48 h incubation
# Summary of the method: as §3
IC50 (A549) [µM],"IC50 (A2780; Homo sapiens, A2780, 48 h) [µM]","IC50 (HeLa; Homo sapiens, HeLa, 48 h) [µM]","IC50 (HCT116; Homo sapiens, HCT-116, 48 h) [µM]",melting point,IC50 (HCT116) [µM],IC50 (A2780) [µM],IC50 (HeLa) [µM],SMILES,"IC50 (MCF-10A; Homo sapiens, MCF-10A, 48 h) [µM]",IC50 (Bj-5ta) [µM],IC50 (Hep G2) [µM],IC50 (PATU) [µM],IC50 (A2058) [µM],IC50 (MCF-10A) [µM]
> 50,> 50,44.9 ± 4.2,47.6 ± 3.8,> 300 °C (dec.),–,–,–,"O=C(COc1ccc(/C=C2\SC(=O)N(Cc3cccc4cc5ccccc5nc34)C2=O)cc1)Nc1ccc([N+](=O)[O-])cc1 [Compound 8d, 2-(4-{[(5Z)-3-[(Acridin-4-yl)methyl]-2,4-dioxo-1,3-thiazolidin-5-ylidene]methyl}phenoxy)-N-(4-nitrophenyl)acetamide]",> 50,> 50,> 50,> 50,> 50,–
> 50,> 50,43.3 ± 5.2,–,205 to 206 °C (dec.),24.3 ± 3.8,–,–,"O=C(COc1ccc(/C=C2\SC(=O)N(Cc3cccc4cc5ccccc5nc34)C2=O)cc1)Nc1ccccc1C(F)(F)F [Compound 8e, 2-(4-{[(5Z)-3-[(Acridin-4-yl)methyl]-2,4-dioxo-1,3-thiazolidin-5-ylidene]methyl}phenoxy)-N-[2-(trifluoromethyl)phenyl]acetamide]",> 50,> 50,> 50,> 50,> 50,–
> 50,> 50,27.7 ± 4.6,25.1 ± 7.8,219 to 220 °C (dec.),–,–,–,"O=C(COc1ccc(/C=C2\SC(=O)N(Cc3cccc4cc5ccccc5nc34)C2=O)cc1)Nc1cccc(C(F)(F)F)c1 [Compound 8f, 2-(4-{[(5Z)-3-[(Acridin-4-yl)methyl]-2,4-dioxo-1,3-thiazolidin-5-ylidene]methyl}phenoxy)-N-[3-(trifluoromethyl)phenyl]acetamide]",> 50,> 50,> 50,> 50,> 50,–
> 50,–,18.7 ± 0.45,–,260 to 262 °C,> 50,> 50,–,"COc1cc(/C=C2\SC(=O)N(Cc3c4ccccc4nc4ccccc34)C2=O)ccc1OCC(=O)Nc1ccccc1 [Compound 12a, 2-(4-{[(5Z)-3-[(Acridin-9-yl)methyl]-2,4-dioxo-1,3-thiazolidin-5-ylidene]methyl}-2-methoxyphenoxy)-N-phenylacetamide]",–,> 50,> 50,> 50,> 50,> 50
34.5 ± 5.4,–,7.3 ± 3.4,–,264 to 265 °C,10.2 ± 2.1,> 50,–,"COc1cc(NC(=O)COc2ccc(/C=C3\SC(=O)N(Cc4c5ccccc5nc5ccccc45)C3=O)cc2OC)cc(OC)c1 [Compound 12b, 2-(4-{[(5Z)-3-[(Acridin-9-yl)methyl]-2,4-dioxo-1,3-thiazolidin-5-ylidene]methyl}-2-methoxyphenoxy)-N-(3,5-dimethoxyphenyl)acetamide]",15.6 ± 2.6,> 50,> 50,> 50,> 50,–
> 50,> 50,19.9 ± 2.05,–,268 to 269 °C,15.1 ± 2,–,–,"COc1cc(/C=C2\SC(=O)N(Cc3c4ccccc4nc4ccccc34)C2=O)ccc1OCC(=O)Nc1cc(OC)c(OC)c(OC)c1 [Compound 12c, 2-(4-{[(5Z)-3-[(Acridin-9-yl)methyl]-2,4-dioxo-1,3-thiazolidin-5-ylidene]methyl}-2-methoxyphenoxy)-N-(3,4,5-trimethoxyphenyl)acetamide]",> 50,> 50,> 50,> 50,> 50,–
31.2 ± 1.1,> 50,–,14.6 ± 1.7,288 to 290 °C,–,–,9.4 ± 0.3,"COc1cc(/C=C2\SC(=O)N(Cc3c4ccccc4nc4ccccc34)C2=O)ccc1OCC(=O)Nc1ccc([N+](=O)[O-])cc1 [Compound 12d, 2-(4-{[(5Z)-3-[(Acridin-9-yl)methyl]-2,4-dioxo-1,3-thiazolidin-5-ylidene]methyl}-2-methoxyphenoxy)-N-(4-nitrophenyl)acetamide]",> 50,> 50,> 50,> 50,> 50,–
31.1 ± 4.2,> 50,–,–,255 to 256 °C,14.3 ± 1.8,–,28.2 ± 3.7,"COc1cc(/C=C2\SC(=O)N(Cc3c4ccccc4nc4ccccc34)C2=O)ccc1OCC(=O)Nc1ccccc1C(F)(F)F [Compound 12e, 2-(4-{[(5Z)-3-[(Acridin-9-yl)methyl]-2,4-dioxo-1,3-thiazolidin-5-ylidene]methyl}-2-methoxyphenoxy)-N-[2-(trifluoromethyl)phenyl]acetamide]",> 50,> 50,> 50,> 50,> 50,–
> 50,> 50,11.5 ± 3.3,–,269 to 270 °C,> 50,–,–,"COc1cc(/C=C2\SC(=O)N(Cc3c4ccccc4nc4ccccc34)C2=O)ccc1OCC(=O)Nc1cccc(C(F)(F)F)c1 [Compound 12f, 2-(4-{[(5Z)-3-[(Acridin-9-yl)methyl]-2,4-dioxo-1,3-thiazolidin-5-ylidene]methyl}-2-methoxyphenoxy)-N-[3-(trifluoromethyl)phenyl]acetamide]",> 50,> 50,> 50,> 50,> 50,–
> 50,> 50,20.7 ± 5.3,–,287 to 288 °C,6.7 ± 2,–,–,"COc1cc(/C=C2\SC(=O)N(Cc3c4ccccc4nc4ccccc34)C2=O)ccc1OCC(=O)Nc1cc(C(F)(F)F)cc(C(F)(F)F)c1 [Compound 12g, 2-(4-{[(5Z)-3-[(Acridin-9-yl)methyl]-2,4-dioxo-1,3-thiazolidin-5-ylidene]methyl}-2-methoxyphenoxy)-N-[3,5-bis(trifluoromethyl)phenyl]acetamide]",> 50,> 50,> 50,> 50,> 50,–
> 50,> 50,41.9 ± 5.7,> 50,213 to 214 °C,–,–,–,"COc1cc(/C=C2\SC(=O)N(Cc3cccc4cc5ccccc5nc34)C2=O)ccc1OCC(=O)Nc1ccccc1 [Compound 13a, 2-(4-{[(5Z)-3-[(Acridin-4-yl)methyl]-2,4-dioxo-1,3-thiazolidin-5-ylidene]methyl}-2-methoxyphenoxy)-N-phenylacetamide]",> 50,> 50,> 50,> 50,49.1 ± 0.85,–
